Assay [1] concerns PMA/Ionomycin-induced NF-κB reporter gene activity. As to the kind of experiment: NF-κB luciferase reporter gene assay, PMA/Ionomycin-stimulated HEK293-NF-κB-luc cells. The assay is classed as cell-based. The source says: The strategy for compound library screening entailed using phorbol ester (phorbol myristic acetate [PMA]) and Ca^2+-ionophore Ionomycin to achieve PKC activation, mimicking the initiating events in the antigen receptor pathway. For convenience, we used HEK293 epithelial cells, in which it has previously been shown by siRNA-mediated gene silencing and transfection of dominant-negative mutants that PMA/Ionomycin-induced NF-κB activation is dependent on CARMA1, Bcl-10, and MALT. HEK293 cells were stably transfected with a luciferase reporter gene driven by a NF-κB responsive promoter, and the responsiveness of this integrated promoter to various NF-κB inducing stimuli was confirmed, including PMA/Ionomycin and TNF. Using these cells, 96- and 384-well plate-based high throughput screening (HTS) assays were established, with good assay performance characteristics (Z′>0.5) (PubChem AID=1384). We initially screened 53,280 chemical compounds at an average concentration of 5 μM, of which 519 primary hits were obtained (based on cut-off of 50% inhibition). Of these, 248 confirmed upon repeat testing (FIG. 1).
Cell engineering. HEK293 cells were co-transfected with pUC13-4xNFκB-Luc and p-TK-puromycin-resistance plasmids. Stable clones were selected by culture in Dulbecco's Modified Eagle's Media (InVitrogen) supplemented with 10% heat-inactivated fetal bovine serum (FBS) (Hyclone), 1% v/v penicillin-streptomycin (InVitrogen) containing 1 μg/mL puromycin. Individual clones were tested for responsiveness to PMA/Ionomycin- and to TNF-induced NF-κB reporter gene activity, and a clone was selected for HTS.
HTS. NF-κB-luciferase expressing HEK293 cells were seeded at […] per well in white 96 well plates (Greiner Bio-One) in 90 μl of DMEM and incubated overnight. 10 μl of compound-containing solution was added to each well (final 1.5 μg/mL in 1% DMSO) using a liquid handler (Biomek™ FX; Beckman Coulter). After 2 h incubation, cells were stimulated using 11 μl of a PMA (final 100 ng/mL; Calbiochem) and ionomycin (final 50 ng/mL; Calbiochem) in DMEM. Cell plates were incubated for 16 h before media was removed and 40 μl of 0.5× passive lysis buffer (Promega Corp.) was added to cell plates. Plates were allowed to stand at room temperature for at least 15 minutes before adding 40 μl of 0.125× luciferin substrate (Promega Corp.) to each well. Plates were analyzed within 30 seconds with a Criterion Analyst™ using the luminescence method (0.1 second read/well).
Several compounds synthesized by the methods described herein were tested for their efficacy at inhibiting Nf-κB activation.
On the technique in general: In a reporter assay the amount or activity of a reporter protein is the signal.

In another assay the test system is MDP (NOD2) induced IL-6. Description: IL-6 in THP.1 cell cultures stimulated with MDP. The assay is classed as cell-based. The settings on record: data not shown. The source says: FIG. 1 is a flow chart of screening and counter-screenings for selective inhibitors of antigen-receptor induced NF-κB pathway. A total of 114,889 compounds were screened. From a screen of 53,280 commercially available compounds (left column), 519 hits were obtained, of which 248 reconfirmed using the same primary screening assay. […] From these 11 active compounds, one hit, CID-2858522, inhibited PMA/Ionomycin-induced production of cytokine IL-8 by the HEK293 cell line. CID-2858522 was then characterized (right column). PDB was substituted for PMA to confirm suppression of an alternative PKC activator. Pathway selectivity was assessed using panels of cell lines, starting with HEK293 cells in which each of the remaining NF-κB activation pathways was stimulated, showing inhibition only of PMA/Ionomycin-induced NF-κB reporter gene activity (panel 1). […]

From patent US20090247520A1, “INHIBITORS OF ANTIGEN RECEPTOR-INDUCED NF-kappa B ACTIVATION” (The Burnham Institute for Medical Research, priority 2008, published 2009) come the findings set out here.

SMILES strings stand for the structures. Read-outs that look alike come from different tables or passages of the source.

As usually defined, the IC50 is the concentration that inhibits the measured activity by half. Regarding `Cc1cc2nc(NCCCO)n(CC(=O)c3cc(C(C)(C)C)c(O)c(C(C)(C)C)c3)c2cc1C` [Compound 1, 2-(2-(3-Hydroxypropylamino)-5,6-dimethyl-1H-benzo[d]imidazol-1-yl)-1-(3,5-di-tert-butyl-4-hydroxyphenyl)ethanone], the half-inhibitory concentration (IC50) in assay [1] (Homo sapiens, HEK293 cell line, PMA/Ionomycin, read-out: IC50, suppression of NF-κB reporter gene activity) was around 70 nM; in assay [1] (Homo sapiens, PMA/Ionomycin / PKC activators, HEK293, read-out: IC50, NF-κB reporter gene assay (cellular potency)), below 100 nM; in assay [1] (Table II, read-out: IC50, Inhibition of antigen receptor-mediated Nf-κB), 70 nM. Further, the “concentration at which maximum inhibition of NF-κB reporter is achieved” value in assay [1] (PMA/Ionomycin, HEK293) fell in the range of 0.25 to 0.5 µM. Further, the “inhibition of MDP-induced NF-κB (IL-6 in THP.1)” value in the assay with MDP (NOD2) induced IL-6 was “failed to inhibit”.
